How the values were obtained:
PARP1 = PARP1 (Homo sapiens, UniProt P09874); test: surface plasmon resonance; assay type: binding
[1] = molecular target: topoisomerase (DNA) II alpha (TOP2A) (Homo sapiens, UniProt P11388); test: surface plasmon resonance; assay type: binding
topoisomerase (DNA) II alpha (TOP2A), sequence (P11388 whole entry): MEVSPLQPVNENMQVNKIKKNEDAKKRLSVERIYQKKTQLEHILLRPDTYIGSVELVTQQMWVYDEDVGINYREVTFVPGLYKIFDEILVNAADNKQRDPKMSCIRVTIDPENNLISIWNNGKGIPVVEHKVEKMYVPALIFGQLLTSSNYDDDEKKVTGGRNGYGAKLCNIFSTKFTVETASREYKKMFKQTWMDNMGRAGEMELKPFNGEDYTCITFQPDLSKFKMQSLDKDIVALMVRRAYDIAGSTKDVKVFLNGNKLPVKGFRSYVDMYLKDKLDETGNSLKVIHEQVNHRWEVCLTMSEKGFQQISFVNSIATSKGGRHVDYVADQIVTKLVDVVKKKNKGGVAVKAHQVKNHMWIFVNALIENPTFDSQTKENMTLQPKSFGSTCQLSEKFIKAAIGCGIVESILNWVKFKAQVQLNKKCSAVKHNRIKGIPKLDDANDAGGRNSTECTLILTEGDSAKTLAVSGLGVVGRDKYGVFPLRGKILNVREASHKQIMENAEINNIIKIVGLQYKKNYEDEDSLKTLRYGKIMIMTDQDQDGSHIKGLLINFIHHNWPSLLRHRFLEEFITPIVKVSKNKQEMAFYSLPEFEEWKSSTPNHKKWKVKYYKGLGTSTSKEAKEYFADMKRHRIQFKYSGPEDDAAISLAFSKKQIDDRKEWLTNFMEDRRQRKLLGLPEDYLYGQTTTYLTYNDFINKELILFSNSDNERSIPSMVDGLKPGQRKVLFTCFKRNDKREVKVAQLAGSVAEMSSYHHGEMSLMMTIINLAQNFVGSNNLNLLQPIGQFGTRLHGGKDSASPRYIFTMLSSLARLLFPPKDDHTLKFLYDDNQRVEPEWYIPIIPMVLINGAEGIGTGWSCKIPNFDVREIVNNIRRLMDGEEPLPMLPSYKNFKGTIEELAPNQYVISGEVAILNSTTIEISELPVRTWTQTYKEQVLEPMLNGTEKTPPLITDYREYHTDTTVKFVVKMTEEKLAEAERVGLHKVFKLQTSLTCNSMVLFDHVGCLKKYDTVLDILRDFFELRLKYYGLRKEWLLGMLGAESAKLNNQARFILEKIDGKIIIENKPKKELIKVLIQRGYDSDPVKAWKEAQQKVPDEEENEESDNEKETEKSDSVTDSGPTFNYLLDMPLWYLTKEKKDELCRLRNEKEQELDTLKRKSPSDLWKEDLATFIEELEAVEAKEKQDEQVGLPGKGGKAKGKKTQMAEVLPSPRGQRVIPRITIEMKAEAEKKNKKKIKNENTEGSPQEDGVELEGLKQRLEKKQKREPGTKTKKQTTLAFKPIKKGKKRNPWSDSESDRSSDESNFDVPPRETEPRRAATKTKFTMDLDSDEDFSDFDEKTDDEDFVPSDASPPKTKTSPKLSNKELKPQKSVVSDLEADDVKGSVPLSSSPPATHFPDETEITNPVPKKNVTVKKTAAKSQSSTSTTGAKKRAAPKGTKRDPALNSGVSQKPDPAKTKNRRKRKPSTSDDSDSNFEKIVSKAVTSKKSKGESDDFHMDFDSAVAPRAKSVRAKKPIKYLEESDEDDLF

PARP1, sequence (P09874 2-1014): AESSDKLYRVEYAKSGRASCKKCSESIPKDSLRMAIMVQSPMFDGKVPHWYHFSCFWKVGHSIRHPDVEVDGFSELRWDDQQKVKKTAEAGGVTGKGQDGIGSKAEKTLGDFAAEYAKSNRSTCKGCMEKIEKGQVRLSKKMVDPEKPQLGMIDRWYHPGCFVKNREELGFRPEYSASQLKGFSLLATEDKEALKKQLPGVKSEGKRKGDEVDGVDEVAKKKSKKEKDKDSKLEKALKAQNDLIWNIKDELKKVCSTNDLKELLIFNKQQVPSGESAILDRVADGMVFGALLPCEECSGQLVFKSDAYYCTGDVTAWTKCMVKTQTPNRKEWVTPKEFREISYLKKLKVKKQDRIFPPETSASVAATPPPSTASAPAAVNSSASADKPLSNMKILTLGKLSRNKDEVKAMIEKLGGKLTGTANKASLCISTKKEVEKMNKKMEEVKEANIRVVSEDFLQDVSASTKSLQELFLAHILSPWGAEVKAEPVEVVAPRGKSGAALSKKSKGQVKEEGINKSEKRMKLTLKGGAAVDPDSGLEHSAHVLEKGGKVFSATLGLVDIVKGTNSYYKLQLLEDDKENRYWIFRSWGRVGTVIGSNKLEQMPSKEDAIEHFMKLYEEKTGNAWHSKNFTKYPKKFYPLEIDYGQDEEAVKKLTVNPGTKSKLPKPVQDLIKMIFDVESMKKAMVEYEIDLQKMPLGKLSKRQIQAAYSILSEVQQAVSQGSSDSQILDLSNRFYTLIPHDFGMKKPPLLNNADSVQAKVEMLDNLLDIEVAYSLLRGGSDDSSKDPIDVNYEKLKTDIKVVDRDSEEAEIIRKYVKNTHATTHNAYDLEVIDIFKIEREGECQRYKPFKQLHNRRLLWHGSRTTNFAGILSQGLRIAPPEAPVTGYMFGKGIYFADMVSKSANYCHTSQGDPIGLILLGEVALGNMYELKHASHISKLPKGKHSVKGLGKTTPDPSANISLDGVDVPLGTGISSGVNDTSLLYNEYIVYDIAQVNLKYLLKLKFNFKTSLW

Olaparib-TCO
Kd (PARP1): 22 nM | Kd [1]: ~3.7 nM
